Among the test systems are CAKI-1 renal; EKVX NSCLC; HL-60(TB) leukemia; HS 578T breast; LOX IMVI melanoma; NCI-H226 lung; NCI-H460 lung; OVCAR-3 ovarian; SK-OV-3 ovarian; SNB-75 CNS.
Holding throughout (assay): NCI tumour cell line growth inhibition, 48 h

Where “and” joins values, the source holds several entries; their conditions need not be identical. Identical values can stand only once.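 Results reflect a 48-hour exposure of cells in 96-well plates to compound at five concentrations. GI50 marks 50% less growth. Definition used: TGI = concentration required for complete inhibition of growth.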

As for `COc1cc(OC)c(/C=C/C(=O)c2ccc(Nc3ncnc4ccccc34)cc2)c(OC)c1`, the GI50 was 1.31 µM in the experiment on CAKI-1 renal; 1.69 µM with EKVX NSCLC; 0.389 µM with HL-60(TB) leukemia; 0.725 µM in the experiment on HS 578T breast; 1.06 µM with LOX IMVI melanoma; 1.03 µM in the experiment with NCI-H226 lung. In addition, the GI50 in the experiment with NCI-H460 lung is 0.394 µM; in the experiment with OVCAR-3 ovarian, 0.365 µM; with SK-OV-3 ovarian, 1.02 µM; in the experiment on SNB-75 CNS, 0.305 µM. Also, the TGI with CAKI-1 renal was found to be 15.2 µM; with EKVX NSCLC, 8.99 µM; in the experiment with HL-60(TB) leukemia, 2.19 µM; in the experiment with HS 578T breast, 5.66 µM; with LOX IMVI melanoma it was 6.52 µM; in the experiment with NCI-H226 lung it was 3 µM. The TGI in the experiment with NCI-H460 lung turned out to be 2.01 µM; in the experiment on OVCAR-3 ovarian, 1.43 µM; with SK-OV-3 ovarian, 2.74 µM; in the experiment on SNB-75 CNS, 1.55 µM.
Take `COC1CC(C)C(OC)c2cc(O)cc(c2O)NC(=O)/C(C)=C/C=C\C(C)C(OC(N)=O)/C(C)=C\C(C)C1OC` (configuration not stated): the GI50 was 6.93 µM and 7.45 µM with CAKI-1 renal; 7.95 µM in the experiment with EKVX NSCLC; 0.075 µM and 0.227 µM and 0.0937 µM in the experiment on HL-60(TB) leukemia; 0.511 µM and 0.758 µM in the experiment with HS 578T breast; 0.165 µM and 0.255 µM in the experiment on LOX IMVI melanoma; 0.348 µM and 0.42 µM in the experiment on NCI-H460 lung. Also, the GI50 with OVCAR-3 ovarian is 0.938 µM and 0.552 µM and 0.186 µM; in the experiment on SK-OV-3 ovarian, 0.171 µM; in the experiment on SNB-75 CNS it was 0.245 µM. In addition, the TGI in the experiment on CAKI-1 renal is 16.3 µM and 14.4 µM; in the experiment on EKVX NSCLC it was 25 µM and 22.9 µM; in the experiment with HL-60(TB) leukemia, 1.48 µM and 0.578 µM; in the experiment with HS 578T breast, 20.8 µM and 6.92 µM; in the experiment on LOX IMVI melanoma, 1.74 µM and 6.91 µM; in the experiment on NCI-H226 lung, 24.3 µM and 24.4 µM. Besides, the TGI in the experiment on NCI-H460 lung was 18.4 µM and 8.56 µM; with OVCAR-3 ovarian, 5.31 µM and 7.4 µM; in the experiment on SK-OV-3 ovarian it was 8.02 µM and 14.7 µM; in the experiment with SNB-75 CNS, 18.2 µM and 3.42 µM.
Regarding `Nc1ncn(C2OC(COP(=O)(O)O)C(O)C2O)c(=O)n1` (configuration not stated), the TGI was greater than 100 µM with CAKI-1 renal; greater than 79 µM in the experiment with EKVX NSCLC; greater than 100 µM in the experiment on HL-60(TB) leukemia; greater than 100 µM in the experiment on HS 578T breast; greater than 100 µM in the experiment with LOX IMVI melanoma; greater than 100 µM with NCI-H226 lung. In addition, the TGI in the experiment on NCI-H460 lung, with OVCAR-3 ovarian, in the experiment with SK-OV-3 ovarian and in the experiment on SNB-75 CNS was greater than 100 µM throughout.
Consider `COC(NC(N)=O)C(=O)O` (configuration not stated), for which the TGI in the experiment on CAKI-1 renal, in the experiment with EKVX NSCLC, in the experiment with HL-60(TB) leukemia, in the experiment with HS 578T breast, with NCI-H226 lung and in the experiment on NCI-H460 lung was greater than 100 µM throughout. For the same compound, the TGI with OVCAR-3 ovarian, with SK-OV-3 ovarian and in the experiment on SNB-75 CNS was greater than 100 µM throughout.
For `O=C1NC(=O)[C@@]2(CC[C@@H](O)C2)c2ccncc21`, the TGI in the experiment on CAKI-1 renal, with EKVX NSCLC, in the experiment on HL-60(TB) leukemia, in the experiment with HS 578T breast, in the experiment with LOX IMVI melanoma and with NCI-H226 lung was greater than 100 µM each time. Besides, the TGI with NCI-H460 lung, in the experiment on SK-OV-3 ovarian and in the experiment with SNB-75 CNS was greater than 100 µM each time.
`O=C(O)/C=C/c1ccc[c]([Sb](=[O])([OH])[OH])c1`: the GI50 in the experiment on CAKI-1 renal, in the experiment on EKVX NSCLC, in the experiment on HL-60(TB) leukemia, in the experiment with HS 578T breast, in the experiment on LOX IMVI melanoma and in the experiment with NCI-H226 lung was greater than 100 µM each time. Moreover, the GI50 in the experiment with NCI-H460 lung and in the experiment with OVCAR-3 ovarian was greater than 100 µM each time. For the same compound, the TGI in the experiment with CAKI-1 renal, with EKVX NSCLC, in the experiment with HL-60(TB) leukemia, in the experiment on HS 578T breast, in the experiment with LOX IMVI melanoma and in the experiment with NCI-H226 lung was greater than 100 µM throughout. The TGI in the experiment with NCI-H460 lung and with OVCAR-3 ovarian was greater than 100 µM throughout.
`COc1ccc(-c2nsc3c2NC(=O)CC3c2ccc3c(c2)OCCO3)cc1` (configuration not stated): the GI50 in the experiment on CAKI-1 renal is 0.429 µM; with HL-60(TB) leukemia, 0.326 µM; in the experiment on HS 578T breast it was 0.398 µM; with LOX IMVI melanoma, 0.601 µM; in the experiment with NCI-H226 lung, 5.19 µM; with NCI-H460 lung, 0.396 µM. The GI50 was 0.327 µM in the experiment with OVCAR-3 ovarian, 0.476 µM in the experiment with SK-OV-3 ovarian and 0.22 µM with SNB-75 CNS. Moreover, the TGI in the experiment with CAKI-1 renal is greater than 100 µM; in the experiment with HL-60(TB) leukemia it was 12.5 µM; in the experiment on HS 578T breast, greater than 100 µM; with LOX IMVI melanoma it was greater than 100 µM; with NCI-H226 lung, greater than 26.6 µM; in the experiment with NCI-H460 lung it was greater than 46 µM. Further, the TGI was 1.15 µM in the experiment with OVCAR-3 ovarian, 8.46 µM in the experiment on SK-OV-3 ovarian and greater than 100 µM in the experiment with SNB-75 CNS.
With `C=C(C)[C@@H]1C/C=C(/CO)CC[C@H]2O[C@]2(C)CC/C=C(\C)CC1`, the GI50 with CAKI-1 renal was 17.1 µM; with EKVX NSCLC, 12.9 µM; in the experiment on HL-60(TB) leukemia it was 8.12 µM; in the experiment on HS 578T breast, 18.2 µM; in the experiment on LOX IMVI melanoma, 15.4 µM; in the experiment on NCI-H226 lung, 19.7 µM. Further, the GI50 was 11.5 µM in the experiment on NCI-H460 lung, 22.2 µM in the experiment with OVCAR-3 ovarian and 12.1 µM in the experiment on SNB-75 CNS. For the same compound, the TGI is 34.8 µM in the experiment with CAKI-1 renal; 36 µM with EKVX NSCLC; 24 µM with HL-60(TB) leukemia; 38.7 µM with HS 578T breast; 30.3 µM in the experiment with LOX IMVI melanoma; 43.7 µM with NCI-H226 lung. The TGI in the experiment on NCI-H460 lung came to 27 µM; in the experiment on OVCAR-3 ovarian, 42.9 µM; in the experiment on SNB-75 CNS, 31.3 µM.
For `O=C1NCN(c2ccccc2)C12CCN(CCCC(c1ccc(F)cc1)c1ccc(F)cc1)CC2`, the GI50 was 2.51 µM with CAKI-1 renal; 1.82 µM in the experiment on HL-60(TB) leukemia; 2.17 µM in the experiment on HS 578T breast; 1.8 µM with LOX IMVI melanoma; 7.36 µM with NCI-H226 lung; 1.68 µM in the experiment on NCI-H460 lung. Moreover, the GI50 in the experiment with OVCAR-3 ovarian is 2 µM; in the experiment on SK-OV-3 ovarian it was 4.2 µM; in the experiment with SNB-75 CNS, 2.07 µM. In addition, the TGI in the experiment on CAKI-1 renal turned out to be 7.44 µM; with HL-60(TB) leukemia, 4 µM; in the experiment with HS 578T breast, 6.51 µM; in the experiment on LOX IMVI melanoma, 3.32 µM; in the experiment with NCI-H226 lung, 35.5 µM; in the experiment on NCI-H460 lung, 3.08 µM. In addition, the results for the TGI in the experiment with OVCAR-3 ovarian, in the experiment on SK-OV-3 ovarian and with SNB-75 CNS were 3.98 µM, 14.7 µM and 14.2 µM, respectively.

Values taken from PubChem BioAssay (NCI).
